In patent publication US20260022142A1, “MACROCYCLIC IMMUNOMODULATORS” (Bristol-Myers Squibb Company, priority 2022, published 2026):
Numbered stars: 1 amine (or outer) side, 2 acyl side, 3 side chain; on linkers, the order of the positions; unused ones are H or OH. Bridge positions count the residues as written; N and C are the ends. Square brackets hold non-standard residues; d marks the D form. Peptide text beside a SMILES is read from it. * marks the point of attachment. Phe(4-CH2CH2COOH) = N[C@@H](Cc1ccc(CCC(=O)O)cc1)C(=O)O; Phe(4-COOH) = N[C@@H](Cc1ccc(C(=O)O)cc1)C(=O)O; Bip = N[C@@H](Cc1ccc(-c2ccccc2)cc1)C(=O)O; Phe(3-Me) = Cc1cccc(C[C@H](N)C(=O)O)c1; X6 = O=C(Cc1ccc(CN[*:1])cc1)[*:2]; 4Pal = N[C@@H](Cc1ccncc1)C(=O)O; Cha = N[C@@H](CC1CCCCC1)C(=O)O; Cit = NC(=O)NCCC[C@H](N)C(=O)O; Carboxymethyl = O=C(O)C*; Orn = NCCC[C@H](N)C(=O)O; Aun = NCCCCCCCCCCC(=O)O; Dab = NCC[C@H](N)C(=O)O; Dap = NC[C@H](N)C(=O)O; AEEA = NCCOCCOCC(=O)O; Ac3c = NC1(C(=O)O)CC1

Target: T1, PD-1/PD-L1 interaction (PE-labeled human PD-L1-Ig binding to Jurkat cell line over-expressing human PD-1) (Homo sapiens, UniProt Q15116)
T1 construct: expressed in transfected cells; host or cells: Jurkat
Assay: Jurkat-PD-1 Cell Binding High-Content Screening Assay (CBA)
Format: cell-based
Settings: Jurkat cell line over-expressing human PD-1; PE-labeled PD-L1-Ig 20 nM final; read-out: Jurkat hPD1-PDL1 IC50
In short: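 Jurkat cells over-expressing human PD-1 (8×10^3 per well, DMEM/10% FCS) preincubated with compound 2 h at 37° C, then PE-labeled human PD-L1-Ig (20 nM final) added for 1 h. Cells fixed with paraformaldehyde, Hoechst-stained, and bound fluorescence quantified by high-content imaging.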

T1 sequence (Q15116 25-288): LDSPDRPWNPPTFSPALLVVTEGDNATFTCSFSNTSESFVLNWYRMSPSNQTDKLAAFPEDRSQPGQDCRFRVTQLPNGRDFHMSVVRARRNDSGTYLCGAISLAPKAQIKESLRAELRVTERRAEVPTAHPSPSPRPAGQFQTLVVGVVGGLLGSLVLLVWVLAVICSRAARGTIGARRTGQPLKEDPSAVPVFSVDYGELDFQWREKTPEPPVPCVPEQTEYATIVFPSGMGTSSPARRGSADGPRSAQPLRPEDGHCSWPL

SMILES | IC50 [nM]
CC[C@H](C)[C@@H]1NC(=O)[C@H](Cc2ccc(-c3ccccc3)cc2)NC(=O)[C@H](C(C)C)NC(=O)[C@H](Cc2c[nH]c3ccccc23)NC(=O)[C@H](CC(=O)O)NC(=O)[C@H](Cc2ccc(OCC(=O)O)cc2)NC(=O)[C@H](Cc2ccncc2)NC(=O)CSC[C@@H](C(=O)N[C@@H](CCCN)C(=O)NCCOCCOCC(=O)NC2(C(=O)NCCCCCCCCCCC(=O)O)CC2)NC(=O)[C@H](CN)NC(=O)[C@H](C(C)C)NC(=O)[C@H](CC(C)C)NC(=O)[C@H](CCN)NC(=O)[C@@H](CC(C)C)NC(=O)[C@H](CCCN)NC1=O [Compound 2006] ({CH2CO}-[4Pal]Y(Carboxymethyl)DWV[Bip]I[Orn][dL][Dab]LV[Dap]C[Orn][AEEA][Ac3c][Aun]-OH; thioether N-14) | 7.7
Cc1cccc(C[C@@H]2NC(=O)[C@H](CC(=O)O)NC(=O)[C@H](Cc3ccc(OCC(=O)O)cc3)NC(=O)[C@H](CN)NC(=O)CSC[C@@H](C(=O)N[C@@H](C)C(=O)N[C@@H](CCCN)C(=O)NCC(=O)NCCCCCCCCCCC(=O)O)NC(=O)[C@H]([C@@H](C)O)NC(=O)[C@H](C(C)C)NC(=O)[C@H](CC3CCCCC3)NC(=O)[C@H](CCN)NC(=O)[C@@H](CC(C)C)NC(=O)[C@H](CCCN)NC(=O)[C@H](CCCNC(=N)N)NC(=O)[C@H](Cc3ccc(-c4ccccc4)cc3)NC(=O)[C@H](C(C)C)NC2=O)c1 [Compound 2007] ({CH2CO}-[Dap]Y(Carboxymethyl)D[Phe(3-Me)]V[Bip]R[Orn][dL][Dab][Cha]VTCA[Orn]G[Aun]-OH; thioether N-14) | 13.7
Cc1cccc(C[C@@H]2NC(=O)[C@H](CC(=O)O)NC(=O)[C@H](Cc3ccc(OCC(=O)O)cc3)NC(=O)[C@H](CN)NC(=O)CSC[C@@H](C(=O)N[C@@H](CCCCN)C(=O)NCCCCCCCCCCC(=O)O)NC(=O)[C@@H](CO)NC(=O)[C@H](C(C)C)NC(=O)[C@H](CC(C)C)NC(=O)[C@H](CCN)NC(=O)[C@@H](CC(C)C)NC(=O)[C@H](CCCN)NC(=O)[C@H](C(C)C)NC(=O)[C@H](Cc3ccc(-c4ccccc4)cc3)NC(=O)[C@H](C(C)C)NC2=O)c1 [Compound 2009] ({CH2CO}-[Dap]Y(Carboxymethyl)D[Phe(3-Me)]V[Bip]V[Orn][dL][Dab]LV[dS]CK[Aun]-OH; thioether N-14) | 17.2
Cc1cccc(C[C@@H]2NC(=O)[C@H](CC(=O)O)NC(=O)[C@H](Cc3ccc(OCC(=O)O)cc3)NC(=O)[C@H](CN)NC(=O)CSC[C@@H](C(=O)NC3(C(=O)NCCCCCCCCCCC(=O)O)CC3)NC(=O)[C@H]([C@@H](C)O)NC(=O)[C@H](C(C)C)NC(=O)[C@H](CC3CCCCC3)NC(=O)[C@H](CCN)NC(=O)[C@@H](CC(C)C)NC(=O)[C@H](CCCN)NC(=O)[C@H](CCCNC(N)=O)NC(=O)[C@H](Cc3ccc(-c4ccccc4)cc3)NC(=O)[C@H](C(C)C)NC2=O)c1 [Compound 2010] ({CH2CO}-[Dap]Y(Carboxymethyl)D[Phe(3-Me)]V[Bip][Cit][Orn][dL][Dab][Cha]VTC[Ac3c][Aun]-OH; thioether N-14) | 15.3
Cc1cccc(C[C@@H]2NC(=O)[C@H](CC(=O)O)NC(=O)[C@H](Cc3ccc(OCC(=O)O)cc3)NC(=O)[C@H](CN)NC(=O)CSC[C@@H](C(=O)NCc3ccc(CC(=O)N[C@@H](CCCCN)C(=O)NCCCCCCCCCCC(=O)O)cc3)NC(=O)[C@H](CN)NC(=O)[C@H](C(C)C)NC(=O)[C@H](CC3CCCCC3)NC(=O)[C@H](CCN)NC(=O)[C@@H](CC(C)C)NC(=O)[C@H](CCCN)NC(=O)[C@H](C(C)C)NC(=O)[C@H](Cc3ccc(-c4ccccc4)cc3)NC(=O)[C@H](C(C)C)NC2=O)c1 [Compound 2011] ({CH2CO}-[Dap]Y(Carboxymethyl)D[Phe(3-Me)]V[Bip]V[Orn][dL][Dab][Cha]V[Dap]C[X6]K[Aun]-OH; thioether N-14) | 24.8
Cc1cccc(C[C@@H]2NC(=O)[C@H](CC(=O)O)NC(=O)[C@H](Cc3ccc(OCC(=O)O)cc3)NC(=O)[C@H](CN)NC(=O)CSC[C@@H](C(=O)N[C@@H](CCCCN)C(=O)NCc3ccc(CC(=O)NCCCCCCCCCCC(=O)O)cc3)NC(=O)[C@H](CN)NC(=O)[C@H](C(C)C)NC(=O)[C@H](CC3CCCCC3)NC(=O)[C@H](CCN)NC(=O)[C@@H](CC(C)C)NC(=O)[C@H](CCCN)NC(=O)[C@H](C(C)C)NC(=O)[C@H](Cc3ccc(-c4ccccc4)cc3)NC(=O)[C@H](C(C)C)NC2=O)c1 [Compound 2012] ({CH2CO}-[Dap]Y(Carboxymethyl)D[Phe(3-Me)]V[Bip]V[Orn][dL][Dab][Cha]V[Dap]CK[X6][Aun]-OH; thioether N-14) | 46
CC[C@H](C)[C@@H]1NC(=O)[C@H](Cc2ccc(-c3ccccc3)cc2)NC(=O)[C@H](C(C)C)NC(=O)[C@H](Cc2c[nH]c3ccccc23)NC(=O)[C@H](CC(=O)O)NC(=O)[C@H](Cc2ccc(OCC(=O)O)cc2)NC(=O)[C@H](Cc2ccncc2)NC(=O)CSC[C@@H](C(=O)N[C@@H](CCCN)C(=O)NCCOCCOCC(=O)NCc2ccc(CC(=O)NCCCCCCCCCCC(=O)O)cc2)NC(=O)[C@H](CN)NC(=O)[C@H](C(C)C)NC(=O)[C@H](CC(C)C)NC(=O)[C@H](CCN)NC(=O)[C@@H](CC(C)C)NC(=O)[C@H](CCCN)NC1=O [Compound 2014] ({CH2CO}-[4Pal]Y(Carboxymethyl)DWV[Bip]I[Orn][dL][Dab]LV[Dap]C[Orn][AEEA][X6][Aun]-OH; thioether N-14) | 33
Cc1cccc(C[C@@H]2NC(=O)[C@H](CC(=O)O)NC(=O)[C@H](Cc3ccc(OCC(=O)O)cc3)NC(=O)[C@H](CN)NC(=O)CSC[C@@H](C(=O)NC3(C(=O)N[C@@H](CCCN)C(=O)N[C@H](CO)C(=O)NCCCCCCCCCCC(=O)O)CC3)NC(=O)[C@H]([C@@H](C)O)NC(=O)[C@H](C(C)C)NC(=O)[C@H](CC3CCCCC3)NC(=O)[C@H](CCN)NC(=O)[C@@H](CC(C)C)NC(=O)[C@H](CCCN)NC(=O)[C@H](CCCNC(N)=O)NC(=O)[C@H](Cc3ccc(-c4ccccc4)cc3)NC(=O)[C@H](C(C)C)NC2=O)c1 [Compound 2015] ({CH2CO}-[Dap]Y(Carboxymethyl)D[Phe(3-Me)]V[Bip][Cit][Orn][dL][Dab][Cha]VTC[Ac3c][Orn][dS][Aun]-OH; thioether N-14) | 19.8
Cc1cccc(C[C@@H]2NC(=O)[C@H](CC(=O)O)NC(=O)[C@H](Cc3ccc(OCC(=O)O)cc3)NC(=O)[C@H](CN)NC(=O)CSC[C@@H](C(=O)N[C@@H](C)C(=O)N[C@@H](CCCN)C(=O)N[C@H](CO)C(=O)NCCCCCCCCCCC(=O)O)NC(=O)[C@H]([C@@H](C)O)NC(=O)[C@H](C(C)C)NC(=O)[C@H](CC3CCCCC3)NC(=O)[C@H](CCN)NC(=O)[C@@H](CC(C)C)NC(=O)[C@H](CCCN)NC(=O)[C@H](CCCNC(=N)N)NC(=O)[C@H](Cc3ccc(-c4ccccc4)cc3)NC(=O)[C@H](C(C)C)NC2=O)c1 [Compound 2016] ({CH2CO}-[Dap]Y(Carboxymethyl)D[Phe(3-Me)]V[Bip]R[Orn][dL][Dab][Cha]VTCA[Orn][dS][Aun]-OH; thioether N-14) | 17.6
Cc1cccc(C[C@@H]2NC(=O)[C@H](CC(=O)O)NC(=O)[C@H](Cc3ccc(OCC(=O)O)cc3)NC(=O)[C@H](CN)NC(=O)CSC[C@@H](C(=O)N[C@@H](CCN)C(=O)NCCOCCOCC(=O)NCCCCCCCCCCC(=O)O)NC(=O)[C@@H](CO)NC(=O)[C@H](C(C)C)NC(=O)[C@H](CC3CCCCC3)NC(=O)[C@H](CCN)NC(=O)[C@@H](CC(C)C)NC(=O)[C@H](CCCN)NC(=O)[C@H](C(C)C)NC(=O)[C@H](Cc3ccc(-c4ccccc4)cc3)NC(=O)[C@H](Cc3ccc(O)cc3)NC2=O)c1 [Compound 2017] ({CH2CO}-[Dap]Y(Carboxymethyl)D[Phe(3-Me)]Y[Bip]V[Orn][dL][Dab][Cha]V[dS]C[Dab][AEEA][Aun]-OH; thioether N-14) | 19.3
CC(C)C[C@@H]1NC(=O)[C@H](Cc2c[nH]c3ccccc23)NC(=O)[C@H](CC(=O)O)NC(=O)[C@H](Cc2ccc(OCC(=O)O)cc2)NC(=O)[C@H](CN)NC(=O)CSC[C@@H](C(=O)N[C@@H](CCN)C(=O)NCCCCCCCCCCC(=O)O)NC(=O)[C@@H](CO)NC(=O)[C@H](C(C)C)NC(=O)[C@H](CC2CCCCC2)NC(=O)[C@H](CCN)NC(=O)[C@@H](CC(C)C)NC(=O)[C@H](CCCN)NC(=O)[C@H](C(C)C)NC(=O)[C@H](Cc2ccc(-c3ccccc3)cc2)NC1=O [Compound 2018] ({CH2CO}-[Dap]Y(Carboxymethyl)DWL[Bip]V[Orn][dL][Dab][Cha]V[dS]C[Dab][Aun]-OH; thioether N-14) | 40.4
CC(C)C[C@@H]1NC(=O)[C@H](Cc2c[nH]c3ccccc23)NC(=O)[C@H](CC(=O)O)NC(=O)[C@H](Cc2ccc(C(=O)O)cc2)NC(=O)[C@H](Cc2ccc(CCC(=O)O)cc2)NC(=O)CSC[C@@H](C(=O)N[C@@H](CCN)C(=O)NCCCCCCCCCCC(=O)O)NC(=O)[C@@H](CO)NC(=O)[C@H](C(C)C)NC(=O)[C@H](CC2CCCCC2)NC(=O)[C@H](CCN)NC(=O)[C@@H](CC(C)C)NC(=O)[C@H](CCCN)NC(=O)[C@H](C(C)C)NC(=O)[C@H](Cc2ccc(-c3ccccc3)cc2)NC1=O [Compound 2019] ({CH2CO}-[Phe(4-CH2CH2COOH)][Phe(4-COOH)]DWL[Bip]V[Orn][dL][Dab][Cha]V[dS]C[Dab][Aun]-OH; thioether N-14) | 49.9
Cc1cccc(C[C@@H]2NC(=O)[C@H](CC(=O)O)NC(=O)[C@H](Cc3ccc(OCC(=O)O)cc3)NC(=O)[C@H](CN)NC(=O)CSC[C@@H](C(=O)N[C@@H](CC(=O)O)C(=O)NCCOCCOCC(=O)NCCCCCCCCCCC(=O)O)NC(=O)[C@H](CCCN)NC(=O)[C@H](C(C)C)NC(=O)[C@H](CC3CCCCC3)NC(=O)[C@H](CCN)NC(=O)[C@@H](CC(C)C)NC(=O)[C@H](CCCN)NC(=O)[C@H](CCCNC(N)=O)NC(=O)[C@H](Cc3ccc(-c4ccccc4)cc3)NC(=O)[C@H](C(C)C)NC2=O)c1 [Compound 2020] ({CH2CO}-[Dap]Y(Carboxymethyl)D[Phe(3-Me)]V[Bip][Cit][Orn][dL][Dab][Cha]V[Orn]CD[AEEA][Aun]-OH; thioether N-14) | 10.5
